Measurements: US20100167956A1, “DNA CHIP FOR DETECTION OF ESCHERICHIA COLI” (MEDIGENES CO., LTD., priority 2007, published 2010)
Values after ≈ are worked out from the molar mass of the structure shown.

Tests used:
E. coli (ATCC 25922) [1] = assay: MIC (minimal inhibitory concentration) test, standard dilution method; format: cell-based; conditions: Escherichia coli, ATCC25922; E. coli ATCC 25922, standard dilution method
Description: For the strain, E. coli (ATCC 25922) was used, and for the antibiotic, Ceftriaxone (CJ, Seoul, Korea), to which E. coli has not developed resistance, was used for the sensitivity test.
First, each strain activated by two subcultures was used to estimate the antibiotic sensitivity by MIC (minimal inhibitory concentration) test. For the MIC test, a standard dilution method (Performance Standards for Antimicrobial Susceptibility Testing; Fifteenth Informational Supplement, Clinical and Laboratory Standard Institute, M100-S15, Vol. 25, No. 1, 2005) was used according to CLIS (The Clinical and Laboratory Standards Institute) guidelines.

E. coli (ATCC 25922) [2] = assay: Plate count of E. coli in antibiotic-treated cultures; conditions: 1st-3rd experiment

Question: `CO/N=C(\C(=O)N[C@@H]1C(=O)N2C(C(=O)O)=C(CSc3nc(=O)c(=O)[nH]n3C)CS[C@H]12)c1csc(N)n1` [Ceftriaxone] was tested. Which MIC (E. coli (ATCC 25922) [1]) did it give?
Answer: The MIC was 0.12 µg/mL (≈ 0.216 µM).

Question: What about the “CFU (number of bacteria, plate count)” value (E. coli (ATCC 25922) [2]; EC-1-04: 1 MIC antibiotic, 4 hr) of the same compound?
Answer: Its value is 0 CFU.

Question: What about the “CFU (number of bacteria, plate count)” value (E. coli (ATCC 25922) [2]; EC-1-06: 1 MIC antibiotic, 6 hr) of the same compound?
Answer: Its value is 0 CFU.

Question: And the “CFU (number of bacteria, plate count)” value (E. coli (ATCC 25922) [2]; EC-1-12: 1 MIC antibiotic, 12 hr)?
Answer: Its value is 0 CFU.

Question: And the “CFU (number of bacteria, plate count)” value (E. coli (ATCC 25922) [2]; EC-1-24: 1 MIC antibiotic, 24 hr)?
Answer: The value was 0 CFU.

Question: And the “CFU (number of bacteria, plate count)” value (E. coli (ATCC 25922) [2]; EC-2-02: 2 MIC antibiotic, 2 hr)?
Answer: The value was 0 CFU.

Question: And the “CFU (number of bacteria, plate count)” value (E. coli (ATCC 25922) [2]; EC-2-04: 2 MIC antibiotic, 4 hr)?
Answer: The value was 0 CFU.

Question: What about the “CFU (number of bacteria, plate count)” value (E. coli (ATCC 25922) [2]; EC-2-06: 2 MIC antibiotic, 6 hr) of the same compound?
Answer: Its value is 0 CFU.

Question: And the “CFU (number of bacteria, plate count)” value (E. coli (ATCC 25922) [2]; EC-2-12: 2 MIC antibiotic, 12 hr)?
Answer: The value was 0 CFU.

Question: What about the “CFU (number of bacteria, plate count)” value (E. coli (ATCC 25922) [2]; EC-2-24: 2 MIC antibiotic, 24 hr) of the same compound?
Answer: Its value is 0 CFU.
